System: moderate-to-severe chronic spontaneous urticaria (CSU)
Experiment: Phase 2 CSU study: hives severity score over 7 days (HSS7)
Assay type: in vivo, human
Parameters: key to HSS7 Change from baseline, Median / HSS7, Median / HSS7, Max / HSS7 Change from baseline, Q1 / HSS7 Change from baseline, Q3 / HSS7 Change from baseline, Max: 7-day sum of daily hive scores, each 0 = none to 3 = >50 hives
Conditions: 400 mg BID
Text: The study comprises a 12 week, randomized, double-blind, placebo-controlled, multi-center, dose-ranging efficacy and safety phase, followed by a 40 week open label extension (OLE) phase (see FIG. 1).
The study consists of three phases and an optional OLE phase.
The UAS is a validated PRO measure. The daily UAS is the sum of the daily Hive Severity Score (HSS, ranging from 0=None to 3=more than 50 hives) and the daily Itch Severity Score (ISS, ranging from 0=None to 3=intense), the 2 key urticaria signs and symptoms which are wheals and itch. The daily UAS scores range from 0 to 6 point/day. Daily UAS scores are summed over 7-day period to create the UAS7, ranging from 0 to 42, and are composed of the HSS7 and ISS7 components. […] Patients were to complete the UAS using the e-diary. The e-diary was to be used once daily on the same time of each day recording of participant's answers to the urticaria activity score over 7 days (UAS7) questionnaire. For participants who entered the OLE phase, their answers to the UAS7 questionnaire were also to be collected from Week 20 to Week24 and from Week 48 to Week 52.
The following secondary endpoints were to be analyzed using the same approach as for the primary endpoint: • Change from baseline in UAS7 at Week 4 • Change from baseline in UAS7 at Week 12 (for US and US reference countries) • Change from baseline in ISS7 at Week 12 (except US and US reference countries) • Change from baseline in HSS7 at Week 12

[1] = Omalizumab-Naïve Population, last block under Week 12, double-blind period, WOCF imputation
[2] = Week 1, Omalizumab-Naïve Population
[3] = Week 2, Omalizumab-Naïve Population
[4] = Week 3, Omalizumab-Naïve Population
[5] = Week 4, Omalizumab-Naïve Population
[6] = Week 5, Omalizumab-Naïve Population
[7] = Week 6, Omalizumab-Naïve Population
[8] = Week 7, Omalizumab-Naïve Population
[9] = Week 8, Omalizumab-Naïve Population

## CC(C)(C=C(C#N)C(=O)N1CCC[C@@H](n2nc(-c3ccc(Oc4ccccc4)cc3F)c3c(N)ncnc32)C1)N1CCN(C2COC2)CC1 [rilzabrutinib, (R)-2-[3-[4-amino-3-(2-fluoro-4-phenoxy-phenyl)pyrazolo[3,4-d]pyrimidin-1-yl]piperidine-1-carbonyl]-4-methyl-4-[4-(oxetan-3-yl)piperazin-1-yl]pent-2-enenitrile]
[1]
  HSS7, Max: 21.0
  HSS7, Min: 0.0
  HSS7 Change from baseline, Max: 0.0
  HSS7 Change from baseline, Mean (SD): −7.80 (6.87)
  HSS7 Change from baseline, Median: −5.00
  HSS7 Change from baseline, Min: −16.0
  HSS7 Change from baseline, Q1: −14.00
  HSS7 Change from baseline, Q3: −4.00
  HSS7 Percent change from baseline, Max: 0.0%
  HSS7 Percent change from baseline, Mean (SD): −53.67 (44.85) percent
  HSS7 Percent change from baseline, Median: −41.67%
  HSS7 Percent change from baseline, Min: −100.0%
  HSS7 Percent change from baseline, Q1: −100.00%
  HSS7 Percent change from baseline, Q3: −26.67%
Week 1, ITT Population
  HSS7 % Change difference for rilzabrutinib vs.placebo LS Mean (95% CI): −25.04 %
  HSS7 % Change from baseline LS Mean (SE): −33.74 (5.55) %
  HSS7 Change difference for rilzabrutinib vs.placebo LS Mean (95% CI): −2.95 (−5.36, −0.55)
  HSS7 Change from baseline LS Mean (SE): −4.79 (0.75)
  HSS7 Postbaseline Mean (SD): 9.32 (5.77)
[2]
  HSS7 % Change difference for rilzabrutinib vs.placebo LS Mean (95% CI): −27.07 %
  HSS7 % Change from baseline LS Mean (SE): −34.51 (5.97) %
  HSS7 Change difference for rilzabrutinib vs.placebo LS Mean (95% CI): −3.10 (−5.66, −0.53)
  HSS7 Change from baseline LS Mean (SE): −4.73 (0.80)
  HSS7 Postbaseline Mean (SD): 9.26 (5.76)
Week 1, Omalizumab-Naïve Population with Outlier Removed from Analysis
  HSS7 Postbaseline Mean (SD): 9.26 (5.76)
Week 2, ITT Population
  HSS7 % Change difference for rilzabrutinib vs.placebo LS Mean (95% CI): −18.39 %
  HSS7 % Change from baseline LS Mean (SE): −34.94 (5.70) %
  HSS7 Change difference for rilzabrutinib vs.placebo LS Mean (95% CI): −2.23 (−4.31, −0.14)
  HSS7 Change from baseline LS Mean (SE): −5.15 (0.79)
  HSS7 Postbaseline Mean (SD): 9.11 (5.66)
[3]
  HSS7 % Change difference for rilzabrutinib vs.placebo LS Mean (95% CI): −19.53 %
  HSS7 % Change from baseline LS Mean (SE): −34.80 (6.07) %
  HSS7 Postbaseline Mean (SD): 9.27 (5.49)
Week 2, Omalizumab-Naïve Population with Outlier Removed from Analysis
  HSS7 Postbaseline Mean (SD): 9.27 (5.49)
Week 3, ITT Population
  HSS7 % Change difference for rilzabrutinib vs.placebo LS Mean (95% CI): −19.09 %
  HSS7 % Change from baseline LS Mean (SE): −38.24 (5.88) %
  HSS7 Change difference for rilzabrutinib vs.placebo LS Mean (95% CI): −2.14 (−4.31, 0.04)
  HSS7 Change from baseline LS Mean (SE): −5.64 (0.82)
  HSS7 Postbaseline Mean (SD): 8.42 (6.15)
[4]
  HSS7 % Change difference for rilzabrutinib vs.placebo LS Mean (95% CI): −20.68 %
  HSS7 % Change from baseline LS Mean (SE): −38.38 (6.33) %
  HSS7 Postbaseline Mean (SD): 8.55 (6.09)
Week 3, Omalizumab-Naïve Population with Outlier Removed from Analysis
  HSS7 Postbaseline Mean (SD): 8.55 (6.09)
Week 4, ITT population
  HSS7 % Change difference for rilzabrutinib vs.placebo LS Mean (95% CI): −24.40 %
  HSS7 % Change from baseline LS Mean (SE): −43.10 (6.02) %
  HSS7 Change difference for rilzabrutinib vs.placebo LS Mean (95% CI): −2.71 (−4.92, −0.50)
  HSS7 Change from baseline LS Mean (SE): −6.16 (0.83)
  HSS7 Postbaseline Mean (SD): 7.50 (6.18)
[5]
  HSS7 % Change difference for rilzabrutinib vs.placebo LS Mean (95% CI): −27.23 %
  HSS7 % Change from baseline LS Mean (SE): −43.11 (6.45) %
  HSS7 Postbaseline Mean (SD): 7.60 (6.00)
Week 4, Omalizumab-Naïve Population with Outlier Removed from Analysis
  HSS7 Postbaseline Mean (SD): 7.60 (6.00)
Week 5, ITT Population
  HSS7 % Change difference for rilzabrutinib vs.placebo LS Mean (95% CI): −12.25 %
  HSS7 % Change from baseline LS Mean (SE): −41.40 (5.88) %
  HSS7 Change difference for rilzabrutinib vs.placebo LS Mean (95% CI): −1.29 (−3.57, 0.99)
  HSS7 Change from baseline LS Mean (SE): −5.93 (0.86)
  HSS7 Postbaseline Mean (SD): 7.91 (6.94)
[6]
  HSS7 % Change difference for rilzabrutinib vs.placebo LS Mean (95% CI): −9.42 (−26.13, 7.29) %
  HSS7 % Change from baseline LS Mean (SE): −39.98 (6.23) %
  HSS7 Postbaseline Mean (SD): 8.34 (6.75)
Week 5, Omalizumab-Naïve Population with Outlier Removed from Analysis
  HSS7 Postbaseline Mean (SD): 8.34 (6.75)
Week 6, ITT Population
  HSS7 % Change difference for rilzabrutinib vs.placebo LS Mean (95% CI): −15.72 %
  HSS7 % Change from baseline LS Mean (SE): −39.79 (6.64) %
  HSS7 Change difference for rilzabrutinib vs.placebo LS Mean (95% CI): −1.64 (−4.07, 0.79)
  HSS7 Change from baseline LS Mean (SE): −5.90 (0.92)
  HSS7 Postbaseline Mean (SD): 7.89 (6.65)
[7]
  HSS7 % Change difference for rilzabrutinib vs.placebo LS Mean (95% CI): −15.99 %
  HSS7 % Change from baseline LS Mean (SE): −40.02 (7.13) %
  HSS7 Postbaseline Mean (SD): 8.17 (6.62)
Week 6, Omalizumab-Naïve Population with Outlier Removed from Analysis
  HSS7 Postbaseline Mean (SD): 8.17 (6.62)
Week 7, ITT Population
  HSS7 % Change difference for rilzabrutinib vs.placebo LS Mean (95% CI): −22.31 %
  HSS7 % Change from baseline LS Mean (SE): −46.27 (6.01) %
  HSS7 Change difference for rilzabrutinib vs.placebo LS Mean (95% CI): −2.71 (−4.98, −0.44)
  HSS7 Change from baseline LS Mean (SE): −6.79 (0.86)
  HSS7 Postbaseline Mean (SD): 7.01 (6.25)
[8]
  HSS7 % Change difference for rilzabrutinib vs.placebo LS Mean (95% CI): −19.88 %
  HSS7 % Change from baseline LS Mean (SE): −45.57 (6.48) %
  HSS7 Postbaseline Mean (SD): 7.34 (6.12)
Week 7, Omalizumab-Naïve Population with Outlier Removed from Analysis
  HSS7 Postbaseline Mean (SD): 7.34 (6.12)
Week 8, ITT population
  HSS7 % Change difference for rilzabrutinib vs.placebo LS Mean (95% CI): −23.44 %
  HSS7 % Change from baseline LS Mean (SE): −52.52 (6.33) %
  HSS7 Change difference for rilzabrutinib vs.placebo LS Mean (95% CI): −2.74 (−5.15, −0.33)
  HSS7 Change from baseline LS Mean (SE): −7.49 (0.91)
  HSS7 Postbaseline Mean (SD): 6.41 (6.73)
[9]
  HSS7 % Change difference for rilzabrutinib vs.placebo LS Mean (95% CI): −25.21 %
  HSS7 % Change from baseline LS Mean (SE): −53.21 (6.86) %
  HSS7 Postbaseline Mean (SD): 6.66 (6.70)
Week 8, Omalizumab-Naïve Population with Outlier Removed from Analysis
  HSS7 Postbaseline Mean (SD): 6.66 (6.70)
Week 9, ITT Population
  HSS7 % Change difference for rilzabrutinib vs.placebo LS Mean (95% CI): −27.61 %
  HSS7 % Change from baseline LS Mean (SE): −51.53 (6.66) %
  HSS7 Change difference for rilzabrutinib vs.placebo LS Mean (95% CI): −3.04 (−5.57, −0.51)
  HSS7 Change from baseline LS Mean (SE): −7.16 (0.96)
  HSS7 Postbaseline Mean (SD): 6.69 (7.49)
Week 9, Omalizumab-Naïve Population
  HSS7 Postbaseline Mean (SD): 7.01 (7.58)
Week 9, Omalizumab-Naïve Population with Outlier Removed from Analysis
  HSS7 Postbaseline Mean (SD): 7.01 (7.58)
Week 10, ITT Population
  HSS7 % Change difference for rilzabrutinib vs.placebo LS Mean (95% CI): −24.54 %
  HSS7 % Change from baseline LS Mean (SE): −52.53 (6.82) %
  HSS7 Change difference for rilzabrutinib vs.placebo LS Mean (95% CI): −2.72 (−5.32, −0.11)
  HSS7 Change from baseline LS Mean (SE): −7.32 (0.99)
  HSS7 Postbaseline Mean (SD): 6.77 (7.18)
Week 10, Omalizumab-Naïve Population
  HSS7 Postbaseline Mean (SD): 7.05 (7.27)
Week 10, Omalizumab-Naïve Population with Outlier Removed from Analysis
  HSS7 Postbaseline Mean (SD): 7.05 (7.27)
Week 11, ITT Population
  HSS7 % Change difference for rilzabrutinib vs.placebo LS Mean (95% CI): −22.60 %
